Laboratory results published in patent publication US6303596A, “Use of taurolidine for treatment of leukemias” (priority 2000, dated 2001).

How the values were obtained:
HL-60 = test: LDH release (cell membrane integrity), HL-60; format: cell-based, human
Procedure: (§1) FIGS. 7A and 7B depict cell viability and growth rates for HL-60 cell line following taurolidine treatment, in terms of % trypan blue negative cells and % cell number, respectively. Cells were treated with various concentrations of taurolidine for 4 hours in AIM-V+0.01% BCS. After aliquots were collected for LDH assay, the remainder of the culture was rinsed in HBSS and resuspended in RPMI+10% BCS without taurolidine. Counts of trypan blue-negative cells (FIG. 7A), and total cell number (FIG. 7B), were recorded daily thereafter (with the measurement at Day 1 being made immediately after the 4 hour taurolidine treatment). Conditions were: no treatment (open circles); 25 μg/ml taurolidine (closed circles); 50 μg/ml taurolidine (open squares); 100 μg/ml taurolidine (closed squares); and vehicle alone (closed triangles). Doubling times were determined under each condition, and expressed as a percentage of the rate of doubling of untreated cells. These values are located to the right of the growth curves in (FIG. 7B). Cells were subcultured when they reached a concentration of 6×10^5 cells/ml. Data are mean±SEM of three experiments.
In these experiments, integrity of cell membranes following taurolidine treatment was assessed by exclusion of trypan blue and by measuring the release of LDH in MM6, K-562, HL-60, and REH cells. Since BCS contains significant amounts of LDH, these experiments were conducted on cells cultured in AIM-V+0.01% BCS. Four hour treatment of cells was conducted in AIM-V containing 0.01% BCS in order to allow subsequent LDH assay without interference from BCS (which occurs in when normal culture medium, containing 10% BCS, is used). Thus, MM6 cells (5×10^5 cells/ml) were treated with taurolidine for four hours in AIM-V+0.01% BCS, after which an aliquot of the cell suspension was removed for measurement of LDH release. A parallel aliquot of cells was lysed by three cycles of freeze/thaw and the quantity of LDH released was taken to be 100%. […]
^a LDH was measured immediately after four hour taurolidine treatment.

HL-60 cells = test: trypan blue exclusion, HL-60; format: cell-based, human; details: HL-60, 25 μg/ml taurolidine, versus MM6, K562, Jurkat
Procedure: as §1, with “Conditions were: no treatment (open circles); 25 μg/ml taurolidine (closed circles); 50 μg/ml taurolidine (open squares); 100 μg/ml taurolidine (closed squares); and vehicle alone (closed triangles).” left out, “These values are located to the right of the growth curves in (FIG. 7B). Cells were subcultured when they reached a concentration of 6×10^5 cells/ml. Data are mean±SEM of three experiments.” left out
In these experiments, integrity of cell membranes following taurolidine treatment was assessed by exclusion of trypan blue and by measuring the release of LDH in MM6, K-562, HL-60, and REH cells. […] A parallel aliquot of cells was lysed by three cycles of freeze/thaw and the quantity of LDH released was taken to be 100%. […]
HL-60 cells treated with 50 μl taurolidine. In these samples, LDH present in the culture medium was 8.3±2.3% of that released by completely lysed cells, compared with 2.3±0.8% measured in control cultures. […]

MM6 = test: TUNEL / propidium iodide flow cytometry, MM6; format: cell-based, human; details: for % TUNEL-positive: MM6, taurolidine 100 μg/ml or anisomycin 1 μg/ml for 4 h, assayed at 6 hours, mean ± SD
Procedure: In the second method, DNA fragmentation was detected via TUNEL assay according to the manufacturer's instructions. With this methodology, 2×10^6 cells were fixed with 2% paraformaldehyde, permeabilized with 0.1% Triton X-100/0.1% citrate, incubated at 37° C. with terminal deoxynucleotidyl transferase and FITC-dUTP, rinsed and analyzed by flow cytometry. Enhanced FITC signal indicates apoptosis-specific DNA fragmentation. Gavriali, et al, "Identification of programmed cell death in situ via specific labeling of nuclear DNA fragmentation," J Cell Biol 119:493 (1992). Parallel aliquots of unfixed cells were treated with PI and FITC-conjugated anti-CD14 and analyzed by flow cytometry, in order to identify cells with permeable cell membranes (since PI binds to DNA but is excluded from cells with intact plasma membranes) and also to determine the cell-specificity of the apoptotic signal.
Consequently, TUNEL analysis was performed on PBMC at 3, 6, or 24 hours after treatment with 25 to 100 μg/ml taurolidine. Aliquots of harvested cells were also labeled with FITC-conjugated anti-CD14 antibodies and PI, which allowed identification of monocytes (CD14-positive cells) and cells with damaged cell membranes (PI-positive cells). […] Thus, nearly 75% of the monocytes were TUNEL-positive following treatment with 100 μg/ml taurolidine for six hours. Confirmation that the TUNEL-positive cells were monocytes was obtained by staining with FITC-conjugated anti-CD14.
In another study, TUNEL assays were performed on all cell lines 6 hours after cells were initially exposed to taurolidine (cells were treated for 4 hours, rinsed, and then incubated for 2 more hours before TUNEL assay was performed).
. Taurolidine and anisomycin induced apoptosis in MM6, HL-60, and Jurkat cells (Table VIII). MM6 and HL-60 cells were similarly effected, with >80% TUNEL-positive cells after 6 hours. Jurkat cells were less sensitive, with approximately 50% of cells induced to undergo apoptosis after taurolidine treatment. After 6 hours, 73% of anisomycin-treated REH cells were apoptotic, with less than 20% of taurolidine-treated REH cells being TUNEL-positive. However, assay of cells 24 hours after
^a Analysis by flow cytometry after staining cells with propidium
iodide and processing for TUNEL.
Data are percent of total cell-size events, and are expressed as mean ±
Cells were treated for 4 hours with taurolidine (100 μg/ml) or
anisomycin (1 μg/ml), and then assayed at 6 hours.

ECV304 = test: subcellular-sized events by flow cytometry, ECV304; format: cell-based, human; details: ECV304, after taurolidine treatment
Procedure: Less than 0.1% of ECV304 or GM5387 cells were TUNEL-positive 6 hours after treatment with taurolidine or anisomycin (Table VIII). Therefore, neither of these agents induce rapid DNA fragmentation in these cell types. However, there was approximately a 70% increase in the number of subcellular-sized events recorded by flow cytometry after taurolidine treatment of these cells, indicating some effect of taurolidine on cell integrity. These cell fragments were not stained by propidium iodide, consistent with them being apoptotic bodies.

[1] = intravenous administration; cited from earlier work

Compound: O=S1(=O)CCN(CN2CCS(=O)(=O)NC2)CN1 [taurolidine, 4,4'-methylenebis(perhydro-1,2,4-thiadiazin 1,1-dioxide)]
- LDH in culture medium, % of that released by completely lysed cells (HL-60; HL-60, control 2.3±0.8%, 240 min): 8.3±2.3%
- cytotoxicity at 50 µg/mL (HL-60; Homo sapiens, HL-60, 50 μg/ml, 4 h, read-out: LDH (% of total)): 5%
- cytotoxicity at 100 µg/mL (HL-60; Homo sapiens, HL-60, 100 μg/ml, 4 h, read-out: LDH (% of total)): 6%
- trypan blue staining after treatment, sensitivity (HL-60 cells): more sensitive
- cytotoxicity at 50 µg/mL (MM6; Homo sapiens, MONO-MAC-6, 3 h, read-out: % Propidium Iodide Positive Cells): 7%
- % TUNEL-positive (MM6): 80.9 ± 7.7%
- % TUNEL-positive (MM6; listed as Taurolidine): > 80%
- onset of apoptosis after treatment (MM6; MM6 cells): detectable within four to six hours
- % TUNEL-Negative Cells (MM6; Mono Mac 6, 50 μg/ml, 3 hours): 44%
- increase in the number of subcellular-sized events (ECV304): ~70%
- alterations in hematologic variables, including white cell count [1]: does not cause detectable alterations
